Source: the supplement of paper PMC10307832

How the values were obtained:
Test in all cases: relative viability (nuclei count vs DMSO), 5 days (fraction); higher = more cells survive
ChaGo-K-1 = system: ChaGo-K-1
How it was run: (§1)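 Lung cancer cell lines in 1536-well plates were dosed by pin tool the day after seeding, either with one drug alone or with a fixed anchor-drug dose plus five library-drug doses (not always all listed) in √10 steps. After 5 days, cells were fixed and their nuclei stained in one step (final 0.05% Triton X-100, 1% formaldehyde, 1 ug/ml Hoechst), then counted on 4× images. Relative viability is the nuclei count in treated wells divided by that in vehicle wells. Values are medians of duplicate plates.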

NCI-H596 = system: NCI-H596
How it was run: as §1

ABC-1 = system: ABC-1
How it was run: as §1

NCI-H1734 = system: NCI-H1734
How it was run: as §1

NCI-H1755 = system: NCI-H1755
How it was run: as §1

NCI-H2009 = system: NCI-H2009
How it was run: as §1

CAL-12T = system: CAL-12T
How it was run: as §1

NCI-H2126 = system: NCI-H2126
How it was run: as §1

NCI-H322M = system: NCI-H322M
How it was run: as §1

NCI-H647 = system: NCI-H647
How it was run: as §1

LXF-289 = system: LXF-289
How it was run: as §1

SW 900 = system: SW 900
How it was run: as §1

LK-2 = system: LK-2
How it was run: as §1

PC-14 = system: PC-14
How it was run: as §1

NCI-H2087 = system: NCI-H2087
How it was run: as §1

NCI-H522 = system: NCI-H522
How it was run: as §1

EMC-BAC-2 = system: EMC-BAC-2
How it was run: as §1

NCI-H2170 = system: NCI-H2170
How it was run: as §1

NCI-H3122 = system: NCI-H3122
How it was run: as §1

H3255 = system: H3255
How it was run: as §1

NCI-H441 = system: NCI-H441
How it was run: as §1

NCI-H1651 = system: NCI-H1651
How it was run: as §1

HOP-62 = system: HOP-62
How it was run: as §1

201T = system: 201T
How it was run: as §1

NCI-H1563 = system: NCI-H1563
How it was run: as §1

Compound CCCCCCCCCCCC1=C(O)C(=O)C=C(O)C1=O [Embelin] + N=C(N)NC(=N)NCCc1ccccc1 [Phenformin] (partner 250 µM) has a relative viability (ChaGo-K-1; first compound 0.08 µM) of 0.547, a relative viability (ChaGo-K-1; first compound 0.8 µM) of 0.503 and a relative viability (ChaGo-K-1; first compound 2.53 µM) of 0.586. The relative viability (ChaGo-K-1; first compound 8 µM) was 0.482, the relative viability (NCI-H596; first compound 0.08 µM) was 0.743 and the relative viability (NCI-H596; first compound 0.8 µM) was 0.744. It also gave a relative viability (NCI-H596; first compound 2.53 µM) of 1.03, a relative viability (NCI-H596; first compound 8 µM) of 0.582 and a relative viability (ABC-1; first compound 0.08 µM) of 0.251. The relative viability (ABC-1; first compound 0.8 µM) was 0.237, the relative viability (ABC-1; first compound 2.53 µM) was 0.256 and the relative viability (ABC-1; first compound 8 µM) was 0.194. For the same compound, the relative viability (NCI-H1734; first compound 0.08 µM) was 0.383, the relative viability (NCI-H1734; first compound 0.8 µM) was 0.521 and the relative viability (NCI-H1734; first compound 2.53 µM) was 0.526. For the same compound, the relative viability (NCI-H1734; first compound 8 µM) was 0.327, the relative viability (NCI-H1755; first compound 0.08 µM) was 0.646 and the relative viability (NCI-H1755; first compound 0.8 µM) was 0.656. For the same compound, the relative viability (NCI-H1755; first compound 2.53 µM) was 0.608, the relative viability (NCI-H1755; first compound 8 µM) was 0.6 and the relative viability (NCI-H2009; first compound 0.08 µM) was 0.495. It also gave a relative viability (NCI-H2009; first compound 0.8 µM) of 0.598, a relative viability (NCI-H2009; first compound 2.53 µM) of 0.44 and a relative viability (NCI-H2009; first compound 8 µM) of 0.295. For the same compound, the relative viability (CAL-12T; first compound 0.08 µM) was 0.578, the relative viability (CAL-12T; first compound 0.8 µM) was 0.687 and the relative viability (CAL-12T; first compound 2.53 µM) was 0.554. For the same compound, the relative viability (CAL-12T; first compound 8 µM) was 0.543, the relative viability (NCI-H2126; first compound 0.08 µM) was 0.556 and the relative viability (NCI-H2126; first compound 0.8 µM) was 0.609. For the same compound, the relative viability (NCI-H2126; first compound 2.53 µM) was 0.591, the relative viability (NCI-H2126; first compound 8 µM) was 0.476 and the relative viability (NCI-H322M; first compound 0.08 µM) was 0.757. For the same compound, the relative viability (NCI-H322M; first compound 0.8 µM) was 0.8, the relative viability (NCI-H322M; first compound 2.53 µM) was 0.913 and the relative viability (NCI-H322M; first compound 8 µM) was 0.677. The relative viability (NCI-H647; first compound 0.08 µM) was 0.632, the relative viability (NCI-H647; first compound 0.8 µM) was 0.721 and the relative viability (NCI-H647; first compound 2.53 µM) was 0.546. It also gave a relative viability (NCI-H647; first compound 8 µM) of 0.472, a relative viability (LXF-289; first compound 0.08 µM) of 0.509 and a relative viability (LXF-289; first compound 0.8 µM) of 0.547. For the same compound, the relative viability (LXF-289; first compound 2.53 µM) was 0.527, the relative viability (LXF-289; first compound 8 µM) was 0.571 and the relative viability (SW 900; first compound 0.08 µM) was 0.778. It also gave a relative viability (SW 900; first compound 0.8 µM) of 0.733, a relative viability (SW 900; first compound 2.53 µM) of 0.655 and a relative viability (SW 900; first compound 8 µM) of 0.481. The relative viability (LK-2; first compound 0.08 µM) was 0.626, the relative viability (LK-2; first compound 0.8 µM) was 0.278 and the relative viability (LK-2; first compound 2.53 µM) was 0.735. The relative viability (LK-2; first compound 8 µM) was 0.26, the relative viability (PC-14; first compound 0.08 µM) was 0.604 and the relative viability (PC-14; first compound 0.8 µM) was 0.988. It also gave a relative viability (PC-14; first compound 2.53 µM) of 0.465, a relative viability (PC-14; first compound 8 µM) of 0.393 and a relative viability (NCI-H2087; first compound 0.08 µM) of 0.486. The relative viability (NCI-H2087; first compound 0.8 µM) was 0.459, the relative viability (NCI-H2087; first compound 2.53 µM) was 0.426 and the relative viability (NCI-H2087; first compound 8 µM) was 0.479. It also gave a relative viability (NCI-H522; first compound 0.08 µM) of 0.722, a relative viability (NCI-H522; first compound 0.8 µM) of 0.856 and a relative viability (NCI-H522; first compound 2.53 µM) of 0.674. It also gave a relative viability (NCI-H522; first compound 8 µM) of 0.621, a relative viability (EMC-BAC-2; first compound 0.08 µM) of 0.56 and a relative viability (EMC-BAC-2; first compound 0.8 µM) of 0.669. For the same compound, the relative viability (EMC-BAC-2; first compound 2.53 µM) was 0.471, the relative viability (EMC-BAC-2; first compound 8 µM) was 0.504 and the relative viability (NCI-H2170; first compound 0.08 µM) was 0.438. It also gave a relative viability (NCI-H2170; first compound 0.8 µM) of 0.489, a relative viability (NCI-H2170; first compound 2.53 µM) of 0.427 and a relative viability (NCI-H2170; first compound 8 µM) of 0.444. For the same compound, the relative viability (NCI-H3122; first compound 0.08 µM) was 0.388, the relative viability (NCI-H3122; first compound 0.8 µM) was 0.415 and the relative viability (NCI-H3122; first compound 2.53 µM) was 0.384. The relative viability (NCI-H3122; first compound 8 µM) was 0.282, the relative viability (H3255; first compound 0.08 µM) was 0.374 and the relative viability (H3255; first compound 0.8 µM) was 0.326. The relative viability (H3255; first compound 2.53 µM) was 0.324, the relative viability (H3255; first compound 8 µM) was 0.362 and the relative viability (NCI-H441; first compound 0.08 µM) was 0.698. It also gave a relative viability (NCI-H441; first compound 0.8 µM) of 0.897, a relative viability (NCI-H441; first compound 2.53 µM) of 0.957 and a relative viability (NCI-H441; first compound 8 µM) of 0.982. The relative viability (NCI-H1651; first compound 0.08 µM) was 0.346, the relative viability (NCI-H1651; first compound 0.8 µM) was 0.412 and the relative viability (NCI-H1651; first compound 2.53 µM) was 0.361. The relative viability (NCI-H1651; first compound 8 µM) was 0.321, the relative viability (HOP-62; first compound 0.08 µM) was 0.649 and the relative viability (HOP-62; first compound 0.8 µM) was 0.701. For the same compound, the relative viability (HOP-62; first compound 2.53 µM) was 0.777, the relative viability (HOP-62; first compound 8 µM) was 0.719 and the relative viability (201T; first compound 0.08 µM) was 0.432. The relative viability (201T; first compound 0.8 µM) was 0.49, the relative viability (201T; first compound 2.53 µM) was 0.482 and the relative viability (201T; first compound 8 µM) was 0.385. For the same compound, the relative viability (NCI-H1563; first compound 0.08 µM) was 0.711, the relative viability (NCI-H1563; first compound 0.8 µM) was 0.728 and the relative viability (NCI-H1563; first compound 2.53 µM) was 0.626. For the same compound, the relative viability (NCI-H1563; first compound 8 µM) was 0.578.
